From publication PMC8242589, “Cardiac Safety of Kinase Inhibitors – Improving Understanding and Prediction of Liabilities in Drug Discovery Using Human Stem Cell-Derived Models” (Frontiers in Cardiovascular Medicine, 2021)
“And” between values parts separate entries of the source, which are not always exact repeats. Equal entries are not always repeated. Where two headings read alike, the source gives them in different places. Values belong to the compound of their own block, whether it stands above or below them.

Assays:
[1] = tested on: hSC-CMs (Cor.4U Cardiomyocytes); assay: CardioExcyte 96 impedance and EFP recording (beating rate, base impedance); format: cell-based, human; conditions: for activity at 0.03 µM / activity at 0.3 µM / activity at 3 µM / activity at 30 µM: Homo sapiens, Cardiomyocyte; for activity at 0.03 µM / activity at 0.3 µM / activity at 3 µM / activity at 30 µM / BR / Base Imp: vs baseline before drug (taken as 100%)
Protocol: Cor.4U® Cardiomyocytes (Ncardia, Netherlands) were cultured in 96-well plates at density of 25,000 – 30,000 cells per well. Cells were maintained at 5% CO2 and 37 °C for 4 days prior to experiments.
Functional monitoring of cardiomyocytes was done using CardioExcyte® 96 (Nanion technologies GmbH, Germany). Extracellular field potential (EFP) and impedance signals were recorded from hSC-CMs that formed monolayers in the wells of the NSP-96 plate. Beating Rate (BR, per minute) was calculated as the reciprocal of the inter-spike interval (ISI) in EFP signal. Impedance signals from spontaneously beating hSC-CMs were recorded with a sampling rate of 1 ms (1 kHz), and EFP data were collected at 0.1ms (10 kHz). Data acquisition was controlled by CardioExcyte® 96 Control software as previously described ([22]). The functional parameters recorded in each concentration of test items were compared to the base line values before drug addition (taken as 100%) to define fractional change.

[2] = tested on: hSC-CMs (Cor.4U Cardiomyocytes); assay: Apoptosis assay (CellEvent Caspase-3/7 Green, IncuCyte ZOOM kinetics over 24 h); format: cell-based, human; parameters: key to Caspase / Caspase MEAN: % of time-matched vehicle control (green object area); conditions: for activity at 0.03 µM / activity at 0.3 µM / activity at 3 µM / activity at 30 µM: Homo sapiens, Cardiomyocyte; for activity at 0.03 µM / activity at 0.3 µM / activity at 3 µM / activity at 30 µM / Caspase: normalized to time-matched vehicle control
Protocol: Cor.4U® Cardiomyocytes ([…], Netherlands) were cultured in 96-well plates at density of 25,000 - 30,000 cells per well. Cells were maintained at 5% CO2 and 37 °C for 4 days prior to experiments. […] The plates were incubated 2 h before compound treatment in the IncuCyte ZOOM (ESSEN BioScience, Ann Arbor, Michigan) to set a baseline before the 24 h compound treatment. […] Imaging was done using 10x microscope objective of the IncuCyteZOOM with four images per well-taken every 2 h in both phase-contrast and green fluorescence. The fluorescent nuclear signal of the apoptotic cells was separated from background with the integrated object counting algorithm, adjusted to cardiomyocytes, and the calculated total green object area per well (μm^2/well) plotted against time. Data were normalized to those of the time-matched vehicle control. Data were representative of at least three replicates per concentration.

[3] = tested on: hSC-CMs (Cor.4U Cardiomyocytes); assay: ATP assay (CellTiter-Glo Luminescent Cell Viability Assay); format: cell-based, human; conditions: for ATP: normalized to time-matched DMSO control
Protocol: Cor.4U® Cardiomyocytes (Ncardia, Netherlands) were cultured in 96-well plates at density of 25,000 – 30,000 cells per well. Cells were maintained at 5% CO2 and 37 °C for 4 days prior to experiments. The cell culture medium (Cor4U® Complete Culture Medium, cat# Ax-M-HC250E, Axiogenesis AG, Cologne, Germany) was changed every 24 h and was replaced by serum-free BMCC medium (cat# Ax-M-BMCC259, Axiogenesis AG, Cologne, Germany) 12 h prior to drug addition.
The CellTiter-Glo Luminescent Cell Viability Assay (cat# G7572, Promega, USA) was performed for quantification of the cellular ATP concentration according to manufacturer's instructions. Plates were shaken for 2 min in the dark, incubated at ambient temperature for 10 min before measuring luminescence (Integration time 0.1 seconds per well) with Luminescence Counter (Synergy H1, BioTek Instruments, Inc., Winooski, Vermont). The measured ATP concentration values were normalized to the time-matched DMSO controls. Data are representative of at least three replicates per concentration.

PI3K p110β = conditions: ref [23]–[25] (NVP-BEZ235), [27] (LY 294002), [28] (GDC-0941), [32] (TGX-221), [33] (CAL-101), [35] (CZC24832); read-out: Target IC50 p110β; cited from earlier work

- Effect on cardiomyocyte function in 3D surface plots (beating rate, base impedance, ATP), in words ([1]; hSC-CMs, 2 and 24 h): pronounced effects
SMILES: Cn1c(=O)n(-c2ccc(C(C)(C)C#N)cc2)c2c3cc(-c4cnc5ccccc5c4)ccc3ncc21 [NVP-BEZ235, Dactolisib]
- activity at 0.03 µM ([1]; 2h, read-out: BR): 99%
- activity at 0.03 µM ([1]; 2h, read-out: Base Imp): 88%
- activity at 0.03 µM ([1]; 24h, read-out: BR): 90%
- activity at 0.03 µM ([1]; 24h, read-out: Base Imp): 85%
- activity at 0.3 µM ([1]; 0.3 µM, 2h, read-out: BR): 73%
- activity at 0.3 µM ([1]; 0.3 µM, 2h, read-out: Base Imp): 86%
- activity at 0.3 µM ([1]; 0.3 µM, 24h, read-out: BR): 57%
- activity at 0.3 µM ([1]; 0.3 µM, 24h, read-out: Base Imp): 75%
- activity at 3 µM ([1]; 3 µM, 2h, read-out: BR): 39%
- activity at 3 µM ([1]; 3 µM, 2h, read-out: Base Imp): 71%
- activity at 3 µM ([1]; 3 µM, 24h, read-out: BR): 14%
- activity at 3 µM ([1]; 3 µM, 24h, read-out: Base Imp): 52%
- activity at 30 µM ([1]; 2h, read-out: BR): 19%
- activity at 30 µM ([1]; 2h, read-out: Base Imp): 51%
- activity at 30 µM ([1]; 24h, read-out: BR): 30%
- activity at 30 µM ([1]; 24h, read-out: Base Imp): 45%
- Reduction of base impedance ([1]; hSC-CMs, 2 and 24 h): more than 20%
- Reduction of beating rate ([1]; hSC-CMs, 2 and 24 h): more than 20%
- activity at 0.03 µM ([2]; 2h): 242%
- activity at 0.03 µM ([2]; 24h): 188%
- activity at 0.3 µM ([2]; 0.3 µM, 2h): 148%
- activity at 0.3 µM ([2]; 0.3 µM, 24h): 320%
- activity at 3 µM ([2]; 3 µM, 2h): 72%
- activity at 3 µM ([2]; 3 µM, 24h): 228%
- activity at 30 µM ([2]; 2h): 86%
- activity at 30 µM ([2]; 24h): 355%
- Apoptosis (caspase-3/7 activation), result in words ([2]; hSC-CMs, monitored over 24 h): induced apoptosis in hSC-CMs with a fast onset
- Time to reach the maximum number of apoptotic cells ([2]; hSC-CMs, monitored over 24 h): ≤ 12 h

- Effect on hSC-CMs function (base impedance and beating rate), in words [1]: did not have any effect
SMILES: Cc1cc(C(C)Nc2ccccc2)c2nc(N3CCOCC3)cc(=O)n2c1 (stereo not drawn) [TGX-221]
- ATP ([3]; 0.1 µM, 2h): 105
- ATP ([3]; 0.1 µM, 24h): 95
- ATP ([3]; 0.3 µM, 2h): 100
- ATP ([3]; 0.3 µM, 24h): 96
- ATP ([3]; 1 µM, 2h): 97
- ATP ([3]; 1 µM, 24h): 97
- ATP ([3]; 3 µM, 2h): 104
- ATP ([3]; 3 µM, 24h): 104
- Effect on ATP level, in words ([3]; hSC-CMs, up to the highest test concentrations): did not have any effect
- IC50 (PI3K p110β): 5 nM
- BR ([1]; 0.1 µM, 2h): 98
- Base Imp ([1]; 0.1 µM, 2h): 107
- BR ([1]; 0.1 µM, 24h): 94
- Base Imp ([1]; 0.1 µM, 24h): 106
- BR ([1]; 0.3 µM, 2h): 93
- Base Imp ([1]; 0.3 µM, 2h): 104
- BR ([1]; 0.3 µM, 24h): 91
- Base Imp ([1]; 0.3 µM, 24h): 100
- BR ([1]; 1 µM, 2h): 94
- Base Imp ([1]; 1 µM, 2h): 98
- BR ([1]; 1 µM, 24h): 95
- Base Imp ([1]; 1 µM, 24h): 97
- BR ([1]; 3 µM, 2h): 95
- Base Imp ([1]; 3 µM, 2h): 97
- BR ([1]; 3 µM, 24h): 89
- Base Imp ([1]; 3 µM, 24h): 98
- Change in the hSC-CMs parameters (surface plots: beating rate, base impedance, ATP) ([1]; hSC-CMs, 2 and 24 h): below 20%
- Apoptosis (caspase-3/7 activation), result in words [2]: no effect
- Caspase ([2]; 0.1 µM, 2h): 104
- Caspase ([2]; 0.1 µM, 24h): 87
- Caspase ([2]; 0.3 µM, 2h): 112
- Caspase ([2]; 0.3 µM, 24h): 95
- Caspase ([2]; 1 µM, 2h): 87
- Caspase ([2]; 1 µM, 24h): 92 and 92.1743
- Caspase ([2]; 3 µM, 2h): 124
- Caspase ([2]; 3 µM, 24h): 111 and 110.619
